Results reported in ChEMBL document CHEMBL1201862, “PubChem BioAssay data set” (2004).
Active and inactive are the calls of the source.

Tests used:
[1] = molecular target: Cytochrome P450 2C19 (Homo sapiens, UniProt P33261); test: Cytochrome panel assay with activity outcomes. Panel member name: p450-cyp2c19 Compounds with AC50 equal or less than 10 uM are considered active; format: functional
[2] = molecular target: Cytochrome P450 2D6 (Homo sapiens, UniProt P10635);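 further: CYP2D6 member of a cytochrome P450 panel assay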
[3] = molecular target: T1, Cytochrome P450 1A2 (Homo sapiens, UniProt P05177)
T1 sequence (P05177 whole entry): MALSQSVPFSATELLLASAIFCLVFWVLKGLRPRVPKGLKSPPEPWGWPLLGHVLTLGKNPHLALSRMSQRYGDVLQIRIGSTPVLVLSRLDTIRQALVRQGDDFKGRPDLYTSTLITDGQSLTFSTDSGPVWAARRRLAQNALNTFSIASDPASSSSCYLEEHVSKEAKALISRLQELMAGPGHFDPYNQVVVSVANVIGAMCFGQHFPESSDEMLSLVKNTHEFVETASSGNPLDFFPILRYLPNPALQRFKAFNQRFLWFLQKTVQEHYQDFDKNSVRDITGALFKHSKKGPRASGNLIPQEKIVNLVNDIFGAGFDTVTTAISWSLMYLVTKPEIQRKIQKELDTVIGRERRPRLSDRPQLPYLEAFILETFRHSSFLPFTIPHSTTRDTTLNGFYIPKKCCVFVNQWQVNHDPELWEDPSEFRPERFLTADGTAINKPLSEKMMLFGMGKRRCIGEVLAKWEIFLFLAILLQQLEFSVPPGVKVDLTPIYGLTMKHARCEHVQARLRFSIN

[4] = molecular target: Cytochrome P450 3A4 (Homo sapiens, UniProt P08684);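 further: CYP3A4 tested as one member of a cytochrome P450 panel screen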
[5] = inhibitors of intracellular T. cruzi replication, confirmation, NIH3T3 host cells, beta-gal luminescence (AID 2044); format: functional, cell-based;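 further: intracellular parasites grown in NIH/3T3 mouse fibroblasts as host cells; luminescent beta-galactosidase reporter signal from transgenic T. cruzi replicating inside host cells; inhibitors lower the luminescence signal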
[6] = cytotoxicity toward NIH3T3 fibroblasts, dose response, counter-screen, cell-based, ATP luminescence, mouse fibroblasts (AID 2010); format: functional;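 further: cells exposed to compound for about 90 hours before reading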
[7] = molecular target: T2, Replicative DNA helicase DnaB (Mycobacterium tuberculosis, UniProt P9WMR3); test: DnaB intein splicing inhibitors, dose response, biochemical, cell-free fluorescence (AID 449749); format: functional
T2 sequence (P9WMR3 whole entry): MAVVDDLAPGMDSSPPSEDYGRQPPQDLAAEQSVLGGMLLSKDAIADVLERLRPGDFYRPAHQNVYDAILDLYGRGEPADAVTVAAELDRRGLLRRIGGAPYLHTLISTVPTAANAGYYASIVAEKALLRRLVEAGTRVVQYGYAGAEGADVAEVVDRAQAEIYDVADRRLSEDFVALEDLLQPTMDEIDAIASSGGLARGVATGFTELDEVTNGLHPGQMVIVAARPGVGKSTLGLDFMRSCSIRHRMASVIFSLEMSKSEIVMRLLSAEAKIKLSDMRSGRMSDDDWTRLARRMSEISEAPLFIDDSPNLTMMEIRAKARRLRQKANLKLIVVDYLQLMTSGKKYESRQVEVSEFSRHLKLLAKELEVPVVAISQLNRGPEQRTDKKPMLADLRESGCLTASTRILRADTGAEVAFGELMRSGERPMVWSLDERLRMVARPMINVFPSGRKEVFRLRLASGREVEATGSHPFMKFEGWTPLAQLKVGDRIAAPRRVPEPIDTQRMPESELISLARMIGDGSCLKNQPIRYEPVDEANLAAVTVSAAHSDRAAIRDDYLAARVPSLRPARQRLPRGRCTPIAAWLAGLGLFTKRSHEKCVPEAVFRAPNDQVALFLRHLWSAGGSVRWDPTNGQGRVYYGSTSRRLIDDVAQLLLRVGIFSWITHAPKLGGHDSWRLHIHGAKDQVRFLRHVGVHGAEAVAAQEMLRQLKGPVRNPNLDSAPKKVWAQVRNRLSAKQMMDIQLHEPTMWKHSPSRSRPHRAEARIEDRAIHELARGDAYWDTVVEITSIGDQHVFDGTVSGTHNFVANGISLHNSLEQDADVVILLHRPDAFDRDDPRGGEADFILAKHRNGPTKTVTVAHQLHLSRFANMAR

[8] = molecular target: T3, Protein RecA (Mycobacterium tuberculosis, UniProt P9WHJ3); test: Fluorescence Cell-Free Homogeneous Dose Retest to Identify Inhibitors of RecA-Intein Splicing Activity. [Related pubchem assays (depositor defined):AID2097, AID2223, AID489010, AID492950]; format: functional
T3 sequence (P9WHJ3 whole entry): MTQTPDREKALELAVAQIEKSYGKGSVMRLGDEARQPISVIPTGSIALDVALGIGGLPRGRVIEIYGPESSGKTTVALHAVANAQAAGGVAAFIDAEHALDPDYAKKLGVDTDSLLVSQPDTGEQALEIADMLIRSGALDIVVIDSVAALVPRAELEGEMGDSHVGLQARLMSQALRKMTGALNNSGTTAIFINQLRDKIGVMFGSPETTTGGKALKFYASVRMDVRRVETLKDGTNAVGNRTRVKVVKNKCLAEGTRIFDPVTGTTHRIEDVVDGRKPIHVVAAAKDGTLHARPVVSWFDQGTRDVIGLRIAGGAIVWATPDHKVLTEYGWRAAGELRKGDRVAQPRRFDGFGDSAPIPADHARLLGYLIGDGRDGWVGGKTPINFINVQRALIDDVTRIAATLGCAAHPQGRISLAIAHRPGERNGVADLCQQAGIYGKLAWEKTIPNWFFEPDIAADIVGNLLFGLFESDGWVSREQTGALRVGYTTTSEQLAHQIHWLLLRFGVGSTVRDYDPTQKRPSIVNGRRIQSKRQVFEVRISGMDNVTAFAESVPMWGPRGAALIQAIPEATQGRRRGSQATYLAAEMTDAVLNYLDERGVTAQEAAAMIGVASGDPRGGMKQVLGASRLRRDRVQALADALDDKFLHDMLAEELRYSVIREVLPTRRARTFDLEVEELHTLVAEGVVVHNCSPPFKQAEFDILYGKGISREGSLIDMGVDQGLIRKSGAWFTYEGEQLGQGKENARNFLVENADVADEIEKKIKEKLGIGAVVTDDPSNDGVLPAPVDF

[9] = molecular target: T4, Corticotropin-releasing factor receptor 2/Corticotropin-releasing factor-binding protein (Homo sapiens, UniProt P24387+Q13324); test: activators of CRF receptor 2 with binding protein – uHTS hits, confirmation (AID 602473); format: functional; settings: read-out: EC50_Mean
T4 sequence (Q13324 whole entry): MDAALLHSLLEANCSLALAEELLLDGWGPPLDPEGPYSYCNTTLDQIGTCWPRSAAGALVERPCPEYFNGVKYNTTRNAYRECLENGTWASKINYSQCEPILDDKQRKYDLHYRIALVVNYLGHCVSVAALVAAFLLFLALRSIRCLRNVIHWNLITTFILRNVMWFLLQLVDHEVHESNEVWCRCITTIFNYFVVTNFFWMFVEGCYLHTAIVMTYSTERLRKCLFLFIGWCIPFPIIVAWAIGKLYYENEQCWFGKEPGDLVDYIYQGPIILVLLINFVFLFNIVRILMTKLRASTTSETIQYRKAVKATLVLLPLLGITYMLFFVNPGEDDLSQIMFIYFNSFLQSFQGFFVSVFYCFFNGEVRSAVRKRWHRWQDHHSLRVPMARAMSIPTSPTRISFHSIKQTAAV
T4 sequence (P24387 whole entry): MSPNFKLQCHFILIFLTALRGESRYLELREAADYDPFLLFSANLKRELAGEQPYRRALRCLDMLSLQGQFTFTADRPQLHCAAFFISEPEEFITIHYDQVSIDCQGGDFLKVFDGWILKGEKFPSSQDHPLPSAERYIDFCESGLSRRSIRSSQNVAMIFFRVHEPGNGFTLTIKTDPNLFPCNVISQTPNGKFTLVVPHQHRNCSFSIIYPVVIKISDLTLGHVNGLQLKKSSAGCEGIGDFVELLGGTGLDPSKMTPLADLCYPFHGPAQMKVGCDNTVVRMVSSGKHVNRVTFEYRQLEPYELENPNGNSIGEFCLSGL

Cytochrome P450 2D6, sequence (P10635 whole entry): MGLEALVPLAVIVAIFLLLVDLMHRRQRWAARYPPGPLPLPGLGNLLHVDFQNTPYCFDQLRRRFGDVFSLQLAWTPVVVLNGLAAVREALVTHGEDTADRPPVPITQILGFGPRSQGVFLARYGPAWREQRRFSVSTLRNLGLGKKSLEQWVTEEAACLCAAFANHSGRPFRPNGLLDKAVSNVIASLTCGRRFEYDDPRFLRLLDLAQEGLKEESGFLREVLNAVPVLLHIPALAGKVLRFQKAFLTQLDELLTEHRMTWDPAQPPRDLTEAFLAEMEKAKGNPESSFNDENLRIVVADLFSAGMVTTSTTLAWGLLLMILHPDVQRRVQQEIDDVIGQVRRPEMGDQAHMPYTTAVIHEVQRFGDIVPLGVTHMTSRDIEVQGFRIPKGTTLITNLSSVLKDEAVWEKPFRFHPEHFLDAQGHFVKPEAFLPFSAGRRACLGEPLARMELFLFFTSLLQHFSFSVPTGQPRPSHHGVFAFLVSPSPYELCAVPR
Cytochrome P450 3A4, sequence (P08684 whole entry): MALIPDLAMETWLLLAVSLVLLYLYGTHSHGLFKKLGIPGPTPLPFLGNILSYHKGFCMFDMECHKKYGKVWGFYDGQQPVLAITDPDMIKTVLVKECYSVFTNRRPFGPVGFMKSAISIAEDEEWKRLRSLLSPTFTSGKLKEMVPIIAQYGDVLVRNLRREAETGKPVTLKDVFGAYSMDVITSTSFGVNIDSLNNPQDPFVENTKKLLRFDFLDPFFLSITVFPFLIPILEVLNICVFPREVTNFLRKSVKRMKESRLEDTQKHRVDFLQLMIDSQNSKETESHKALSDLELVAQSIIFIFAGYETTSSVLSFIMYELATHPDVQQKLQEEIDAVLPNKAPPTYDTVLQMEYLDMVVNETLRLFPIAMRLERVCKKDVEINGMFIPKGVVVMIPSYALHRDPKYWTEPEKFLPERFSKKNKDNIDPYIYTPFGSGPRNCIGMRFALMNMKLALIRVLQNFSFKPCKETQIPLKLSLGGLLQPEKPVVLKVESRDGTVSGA
Cytochrome P450 2C19, sequence (P33261 whole entry): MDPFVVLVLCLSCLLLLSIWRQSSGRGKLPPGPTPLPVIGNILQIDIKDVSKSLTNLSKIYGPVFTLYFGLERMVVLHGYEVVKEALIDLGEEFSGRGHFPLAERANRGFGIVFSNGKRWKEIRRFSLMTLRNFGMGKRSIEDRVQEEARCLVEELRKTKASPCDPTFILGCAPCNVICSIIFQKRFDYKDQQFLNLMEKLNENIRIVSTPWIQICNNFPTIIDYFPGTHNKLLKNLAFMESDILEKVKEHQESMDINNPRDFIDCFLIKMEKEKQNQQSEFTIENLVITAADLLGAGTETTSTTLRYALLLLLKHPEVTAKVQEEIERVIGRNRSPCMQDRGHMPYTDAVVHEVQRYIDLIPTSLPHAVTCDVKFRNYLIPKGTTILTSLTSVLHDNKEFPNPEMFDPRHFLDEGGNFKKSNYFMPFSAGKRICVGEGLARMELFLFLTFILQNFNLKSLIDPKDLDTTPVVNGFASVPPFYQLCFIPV

Row | Structure (SMILES) | AC50 [3] | AC50 [7] | EC50 [8] | further results
1 | C[C@@H](C(=O)O)c1ccc(C[C@@H]2CCCC2=O)cc1 | – | – | – | AC50 [1]: inconclusive
2 | COC(=O)c1ccccc1Oc1c(F)c(F)nc(N2CCOCC2)c1F | 28.2 µM (inconclusive) | – | – | AC50 [2]: 35.5 µM (inconclusive)
3 | Cc1ccc2nc(Nc3ccccc3O)nc(-c3ccccc3)c2c1 | – | – | – | AC50 ([1]; read-out: AC50): 2.24 µM (inconclusive); AC50 [2]: 3.55 µM (inconclusive); AC50 [4]: 35.5 µM (inconclusive)
4 | Cc1cc(C(=O)CCl)c(C)n1CC1COc2ccccc2O1 (configuration not stated) | – | 21.7 µM (active) | 13.5 µM (active) | EC50 [5]: 1.81 µM (active); EC50 [6]: 4.42 µM (active)
5 | Cc1ccc(C2CC(c3cccs3)=NN2C(=O)CSC2=NCCS2)cc1 (configuration not stated) | – | 6.2 µM (active) | 6.68 µM (active) | –
6 | NS(=O)(=O)c1cc2c(cc1Cl)N[C@H](Cc1ccccc1)NS2(=O)=O | 3.16 µM (inconclusive) | – | – | –
7 | Cn1cc(-c2nc3cnc(Oc4cccc(Cl)c4)nc3n(C3CC3)c2=O)c2ccccc21 | 12.6 µM (inconclusive) | – | – | –
8 | Cc1nn(-c2ccccc2)c2c1C(c1ccc(F)cc1F)C(C#N)=C(N)O2 (configuration not stated) | – | 7.25 µM (active) | 3.5 µM (active) | –
9 | CC(C)[C@@H]1[C@H]2CC[C@H](C2)[C@H]1N | 31.6 µM (inconclusive) | – | – | AC50 [4]: 15.8 µM (inconclusive)
10 | CN1CCN(c2ncc3nc(-c4cccs4)c(=O)n(CCC#N)c3n2)CC1 | 15.8 µM (inconclusive) | – | – | AC50 [4]: 31.6 µM (inconclusive)
11 | COc1ccc(N(C(=O)c2ccco2)S(=O)(=O)c2cccs2)cc1 | – | 38.1 µM (active) | 32.6 µM (active) | –
12 | N#Cc1ccc(CC(=O)c2ccccc2)[nH]c1=O | – | – | – | EC50 [9]: 12.2 µM (active)
13 | Cc1ccc(C2(c3ccc(C)c(O)c3C)CCN(C)CC2)c(C)c1O | 5.01 µM (inconclusive) | – | – | –
14 | Cn1c(CN2CCOCC2)nnc1SCc1ccccc1 | – | – | – | AC50 ([1]; read-out: AC50): 20 µM (inconclusive)
15 | CCOc1cc(NC(=O)c2ccccc2[N+](=O)[O-])c(OCC)cc1NC(=O)CC(C)C | – | – | – | AC50 ([1]; read-out: AC50): 0.0112 µM (inconclusive)
16 | O=C(Cc1cc(O)n[nH]1)N/N=C/c1ccccc1[N+](=O)[O-] | – | 4.19 µM (active) | 1.73 µM (active) | –
17 | Cc1ccsc1/C=N/NC(=O)Cc1cc(O)[nH]n1 | – | 1.68 µM (active) | 1.28 µM (active) | –
18 | CN1CCC(n2[nH]c(-c3ccccc3)c(Cc3ccccc3)c2=O)CC1 [BENZPIPERYLON] | 1.58 µM (inconclusive) | – | – | AC50 [2]: 3.16 µM (inconclusive)
